Entries after “also recorded” stand apart in the source; their conditions may differ. Like-named read-outs stand apart in the source and are kept apart here.
Legend:
[1] = molecular target: T1, glucocorticoid receptor (GR) (Homo sapiens, UniProt P04150); experiment: htSMT of Halo-GR in U2OS cells; format: cell-based; settings: 1 μM antagonist, singly or with cognate agonist, FIG. 36D
T1 construct: Because U2OS cells express GR endogenously, HaloTag was inserted right before the stop codon of endogenous NR3C1; endogenous in cells; host or cells: U2OS, CRISPR/Cas9 HaloTag knock-in at the endogenous NR3C1 locus
T1 sequence (P04150 1-777): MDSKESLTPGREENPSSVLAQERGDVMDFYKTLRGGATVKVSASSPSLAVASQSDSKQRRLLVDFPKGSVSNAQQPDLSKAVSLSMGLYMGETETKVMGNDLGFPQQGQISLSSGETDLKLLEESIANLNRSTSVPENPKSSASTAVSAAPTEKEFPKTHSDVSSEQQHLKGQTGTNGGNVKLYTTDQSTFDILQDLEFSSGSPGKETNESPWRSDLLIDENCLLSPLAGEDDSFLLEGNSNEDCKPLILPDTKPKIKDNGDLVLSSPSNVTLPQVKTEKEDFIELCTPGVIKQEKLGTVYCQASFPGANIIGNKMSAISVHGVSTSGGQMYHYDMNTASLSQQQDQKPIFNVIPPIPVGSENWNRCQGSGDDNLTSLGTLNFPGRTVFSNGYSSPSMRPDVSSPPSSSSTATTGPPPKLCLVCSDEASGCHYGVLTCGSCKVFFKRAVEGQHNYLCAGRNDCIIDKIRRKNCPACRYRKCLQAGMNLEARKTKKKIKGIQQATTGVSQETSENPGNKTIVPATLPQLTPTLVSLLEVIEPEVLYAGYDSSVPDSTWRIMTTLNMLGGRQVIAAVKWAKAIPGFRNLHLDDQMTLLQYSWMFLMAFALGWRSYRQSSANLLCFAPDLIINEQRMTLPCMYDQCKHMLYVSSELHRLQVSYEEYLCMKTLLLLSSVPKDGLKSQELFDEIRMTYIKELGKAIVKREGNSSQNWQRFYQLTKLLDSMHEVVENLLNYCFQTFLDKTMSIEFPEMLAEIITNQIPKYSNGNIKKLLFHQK
Excerpt: Where appropriate, compounds were serially diluted in an Echo Qualified 384-Well Low Dead Volume Source Microplate (0018544, Beckman Coulter) to generate dose-titration source material.

[2] = molecular target: T2, Estrogen Receptor (ER) (Homo sapiens, UniProt P03372); experiment: htSMT of Halo-ER in U2OS cells (fbound, Dfree); format: cell-based; settings: for change in ER fbound (direction): follow-up of screen actives, dose titration or 100 nM
T2 construct: expressed in transfected cells
T2 sequence (P03372 1-595): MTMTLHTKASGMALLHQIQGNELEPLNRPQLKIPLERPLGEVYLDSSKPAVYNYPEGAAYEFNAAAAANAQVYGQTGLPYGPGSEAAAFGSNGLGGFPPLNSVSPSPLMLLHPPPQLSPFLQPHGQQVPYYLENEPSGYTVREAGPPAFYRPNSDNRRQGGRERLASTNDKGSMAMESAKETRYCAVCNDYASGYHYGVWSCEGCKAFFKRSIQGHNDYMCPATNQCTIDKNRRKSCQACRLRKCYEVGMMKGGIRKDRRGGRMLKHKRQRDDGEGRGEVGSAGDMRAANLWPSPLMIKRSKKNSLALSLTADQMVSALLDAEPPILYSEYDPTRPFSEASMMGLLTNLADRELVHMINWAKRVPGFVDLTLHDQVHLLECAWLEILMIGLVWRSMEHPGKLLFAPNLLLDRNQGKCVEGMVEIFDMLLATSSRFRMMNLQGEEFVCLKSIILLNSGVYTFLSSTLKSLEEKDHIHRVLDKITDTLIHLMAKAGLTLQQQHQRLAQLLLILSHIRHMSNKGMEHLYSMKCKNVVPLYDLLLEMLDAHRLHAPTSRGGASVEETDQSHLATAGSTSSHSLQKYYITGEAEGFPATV

[3] = molecular target: T3, ER (Homo sapiens, UniProt P03372); experiment: Western blot of ER after compound treatment; format: cell-based; settings: 24 hours prior to lysis; MCF7, T47d, U2OS Halo-ER; FIG. 22A
T3 construct: host or cells: Halo-ER U2OS, MCF7 or T47d (immunofluorescence)
T3 sequence (P03372 1-595): T2 sequence (P03372 1-595)

[4] = molecular target: androgen receptor (AR) (Homo sapiens, UniProt P10275)
Sequence of androgen receptor (AR) (P10275 whole entry): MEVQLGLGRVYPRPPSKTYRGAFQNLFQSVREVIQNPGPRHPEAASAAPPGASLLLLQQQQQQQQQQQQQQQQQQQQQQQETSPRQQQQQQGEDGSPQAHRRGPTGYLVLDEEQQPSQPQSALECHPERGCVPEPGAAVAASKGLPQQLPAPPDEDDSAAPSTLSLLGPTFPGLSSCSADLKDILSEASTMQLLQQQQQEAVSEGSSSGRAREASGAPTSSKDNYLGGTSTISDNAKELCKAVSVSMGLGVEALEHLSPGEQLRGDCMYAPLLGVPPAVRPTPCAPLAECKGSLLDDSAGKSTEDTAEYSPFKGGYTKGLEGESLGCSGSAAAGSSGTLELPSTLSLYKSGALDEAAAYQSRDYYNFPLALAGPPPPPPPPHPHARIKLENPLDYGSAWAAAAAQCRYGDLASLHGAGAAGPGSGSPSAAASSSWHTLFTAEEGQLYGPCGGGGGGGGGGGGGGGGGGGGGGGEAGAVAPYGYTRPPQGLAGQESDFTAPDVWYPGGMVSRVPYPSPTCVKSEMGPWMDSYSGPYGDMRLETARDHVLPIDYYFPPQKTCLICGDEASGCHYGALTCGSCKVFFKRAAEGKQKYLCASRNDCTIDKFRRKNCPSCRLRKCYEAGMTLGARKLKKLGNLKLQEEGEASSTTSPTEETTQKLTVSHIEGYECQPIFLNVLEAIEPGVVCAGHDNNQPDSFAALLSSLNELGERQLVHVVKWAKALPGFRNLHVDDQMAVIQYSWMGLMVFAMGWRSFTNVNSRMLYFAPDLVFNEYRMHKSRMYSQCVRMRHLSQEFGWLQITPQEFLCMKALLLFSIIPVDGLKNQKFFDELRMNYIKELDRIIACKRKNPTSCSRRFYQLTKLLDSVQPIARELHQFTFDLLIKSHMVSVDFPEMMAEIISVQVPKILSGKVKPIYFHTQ

[5] = molecular target: T2, Estrogen Receptor (ER); experiment: kinetic SMT (kSMT) of ER after compound addition; format: cell-based; settings: FIG. 18C, 18D
[6] = molecular target: T2, Estrogen Receptor (ER); experiment: residence time imaging of ER-Halo (track length survival); format: cell-based; settings: 100 nM, versus DMSO, FIG. 18E

Q: For `CN(C)c1ccc(C(c2ccc(N(C)C)cc2)c2cc([N+](=O)[O-])ccc2Cl)cc1` [AL082D06], which “effect on GR chromatin binding (change in fbound)” value [1] is on record?
A: decrease in chromatin binding

Q: With `C[C@]12CC[C@@H]3c4ccc(O)cc4C[C@@H](CCCCCCCCC[S+]([O-])CCCC(F)(F)C(F)(F)F)[C@H]3[C@@H]1CC[C@@H]2O` (stereo partly shown) [fulvestrant] as the compound, how does the “change in ER fbound / ER movement in bioactive screen” value ([2]; 1 μM compound versus DMSO, 5,067-molecule screen, FIG. 15, 18A) read?
A: increase in fbound; also recorded: significantly increased fbound

Q: What about the “ER degradation (western blot)” value [3] of the same compound?
A: leads to the degradation of ER

Q: Which “effect on AR chromatin binding (change in fbound)” value [4] does the source give for `CC(O)c1cc(C(=O)N[C@@H](C)Cn2ccc(-c3ccc(C#N)c(Cl)c3)n2)[nH]n1` (stereo partly shown) [Darolutamide] here?
A: decrease in chromatin binding

Q: `CC(C)C[C@H](NC(=O)[C@H](CCc1ccccc1)NC(=O)CN1CCOCC1)C(=O)N[C@@H](Cc1ccccc1)C(=O)N[C@@H](CC(C)C)C(=O)[C@@]1(C)CO1` [carfilzomib] was tested. Which “time course of overall effect on ER movement” value (from here on “time course of overall effect”) [5] did it give?
A: slowly increasing over the four-hour measurement window

Q: Which “change in ER fbound / ER movement in bioactive screen” value [2] does the source give for 4-hydroxytamoxifen here?
A: significantly increased fbound

Q: And the “maximal increase in fbound, compared” value [2]?
A: lower maximal increases in fbound

Q: With `COc1cccc(-c2cc(F)ccc2[C@H]2Cc3nc(N)nc(C)c3C(=O)N2)n1` [HSP990] as the compound, how does the “time course of overall effect” value [5] read?
A: reached a plateau after an hour

Q: What about the “change in ER fbound (direction)” value [2] of the same compound?
A: increase in fbound

Q: How did the “time course of overall effect” value [5] turn out when `CC(C)C[C@H](NC(=O)[C@H](Cc1ccccc1)NC(=O)c1cnccn1)B(O)O` [bortezomib] was run?
A: slowly increasing over the four-hour measurement window

Q: How did the “time course of overall effect” value [5] turn out when `CC(C)c1cc(-c2n[nH]c(=O)n2-c2ccc3c(ccn3C)c2)c(O)cc1O` [ganetespib] was run?
A: reached a plateau after an hour

Q: What about the “change in ER fbound (direction)” value [2] of the same compound?
A: increase in fbound

Q: What about the “decrease in total number of long binding events” value [6] of the same compound?
A: four

Reference: US20260220796A1, “Systems and Methods for High Throughput Single Molecule Tracking in Living Cells” (EIKON THERAPEUTICS, INC., priority 2022, published 2026)
